By Cmax is commonly meant the peak of the concentration-time curve. For orientation: pIC50 means −log10 of the IC50, conventionally taken in molar units. A word on the AUC(0-t): it is the area under the concentration-time curve up to a stated or last time point.

We go through 7 molecules from patent US20140178461A1, “COMPOUNDS AND COMPOSITIONS FOR USE IN THE TREATMENT AND PREVENTION OF LUNG AND BRAIN CANCER AND PRECANCEROUS CONDITIONS THEREOF” (priority 2012, published 2014).

pIC50: −log10 of the molar value. Read-outs that look alike come from different tables or passages of the source.

Data set [1] deals with Salmonella Typhimurium (TA98 and TA100). As to the kind of experiment: Genotoxicity, reverse mutations in Salmonella with and without rat liver S9. Particulars: strains TA98 and TA100, presence and absence of rat liver S9.
Data set [2] relates to A549 human non-small cell lung cancer cells. As to the kind of experiment: Subcutaneous A549 xenograft in NOD SCID mice (efficacy of PTI 93). It is filed as in vivo, mouse. Particulars: end of study, factoring in the 0 time value. The method, then: A549 human non-small cell lung cancer cells (1.5×10^5) were injected subcutaneously in the left and right flanks of 5-6-week-old female NOD SCID mice (Taconic Farms, Germantown, N.Y.). When the average tumor volume reached 100 mm^3, mice were treated by oral gavage of 10 or 15 mg/kg/day PTI 93 or vehicle (corn oil) for 2 weeks, when they were sacrificed and the tumors were harvested.

Data set [3] can be described thus: Pharmacokinetics study of PTI 93 in mice (plasma levels). Particulars: single i.p. dose of 100 mg/kg PTI 93, mice.
Another data set relates to heart tissue. Put plainly: Cardiotoxicity, histology of heart tissue sections from treated mice. The note with it: mice treated for about 1.5 months.
Another data set has as its system U87 glioblastoma cells. As to the kind of experiment: Apoptosis, Annexin V-FITC/PI staining by FACS. The data set is classed as cell-based, human. (In general: Flow cytometry measures light scatter and fluorescence of single cells or particles in a stream.)
Details of data set [4]: AUC in plasma: unit not given beside the values. The note with it: mouse, in vivo, inhaled or intranasal.
Another data set deals with U87 cells. As to the kind of experiment: Inhibition of glioblastoma cell line U87, 24-h growth inhibitory concentration. It is filed as cell-based, human. Particulars: 24-hour growth inhibition.
A short description of the next data set: in vivo. The note with it: mouse, ip, 58 mg/kg.
A short description of data set [5]: Biodistribution of liposomal phospho-ibuprofen amide 1 in mice after i.v. administration. It is filed as in vivo. The note with it: single 200 mg/kg i.v. dose, 1 h.
Data set [6] deals with A549 human non-small lung cancer cells. As to the kind of experiment: Orthotopic A549-GFP lung tumor model in Ncr nude mice (efficacy of phospho-ibuprofen amide 1). It is filed as in vivo. The note with it: 200 mg/kg once a week for 8 weeks; compound 1 liposomal; versus control.

Take `CCOP(=O)(OCC)OCCc1ccc(OC(=O)Cc2c(C)n(C(=O)c3ccc(Cl)cc3)c3ccc(OC)cc23)cc1` [PTI 93, [1-(4-Chloro-benzoyl)-5-methoxy-2-methyl-1H-indol-3-yl]-acetic acid 4-[2-(diethoxy-phosphoryloxy)-ethyl]-phenyl ester]: in [1], the “genotoxicity (reverse mutations)” value is “no genotoxicity”. Further, the “reduction of tumor volume” value came to 85% in [2] (10 mg/kg/day oral gavage for 2 weeks) and 96% in data set [2] (15 mg/kg/day oral gavage for 2 weeks). Moreover, the “time of maximum plasma concentration of intact PTI” value in [3] was determined as 2 h. Moreover, the “plasma level of intact PTI 4 hours post administration” value in [3] (4 hours) is given as “undetectable”. In addition, in the data set on heart tissue, the “cardiotoxicity (histology, treated versus healthy control mice)” value is on record as “no differences”.
For `CCCC(CCC)C(=O)Oc1ccc(COP(=O)(OCC)OCC)cc1` [PV 116, Phosphovalproic Acid], the “fold-increase of annexinV (+) cells” value with U87 glioblastoma cells is 3.0 fold.
`CSc1ccc(/C=C2/C(C)=C(CC(=O)O)c3cc(F)ccc32)cc1` [Sulindac sulfide 131, sulindac sulfide] registered an AUC in plasma in data set [4] (BALB/c nude) of 66.9. In data set [4], this molecule had an AUC in lung of 18.9 nmol·h/g.
For the molecule `CC1=C(CC(=O)O)c2cc(F)ccc2/C1=C\c1ccc(S(C)(=O)=O)cc1` [Sulindac sulfone 132, sulindac sulfone], in [4] (BALB/c nude), the AUC in plasma came out at 142.4, the Cmax was 10.4 µM, the Tmax in lung is on record as 8 h and the Tmax in plasma worked out at 8 h. In [4], this molecule showed an AUC in lung of 57.5 nmol·h/g and a Cmax in lung of 4.6 nmol/g.
In the data set on U87 cells, `CC1=C(CC(=O)O)c2cc(F)ccc2/C1=C\c1ccc([S+](C)[O-])cc1` (stereo not shown) [Sulindac, sulindac] gave a pIC50 of at most 3.00. In data set [4], the AUC in lung came to 30.1 nmol·h/g, the AUC in plasma was 49.5, the Tmax in lung is on record as 0 h and the Tmax in plasma turned out to be 0 h.
In “in vivo”, `COc1ccc2c(c1)c(CC(=O)O)c(C)n2C(=O)c1ccc(Cl)cc1` [indomethacin 127, indomethacin] had an AUC(0-t) of 500 µM·h and a Cmax of 127 µM.
As for `CCOP(=O)(OCC)OCCCCNC(=O)C(C)c1ccc(CC(C)C)cc1` (stereo not shown) [phospho-ibuprofen amide 1, Phosphoric acid diethyl ester 4-[2-(4-isobutyl-phenyl)-propionylamino]-butyl ester], in data set [5], the “biodistribution (drug concentration in blood and major organs)” value is listed as “preferentially accumulated in lungs”. In addition, in [6], the “reduction based on lung tumor weight (lung weight)” value is 80% and the “reduction of lung cancer based on fluorescence” value was 95%.
